What was measured:
[1] = Oxygen scavenger screening: dissolved O2 in effluent water (apparatus of FIG. 1); conditions: Equivalence Scavenger:O2 2:1, 250 ° F., feed pH 9.0-9.5
Experimental: The apparatus of FIG. 1 was utilized to evaluate the efficiency of various oxygen scavengers. Reference is made to FIG. 1. The feedstream was ambient temperature (22° C.) air-saturated deionized water. Air-saturation of the feedwater was maintained with a continuous purge with CO2 -free air. The pH of the feedwater was adjusted to within the range of 9.0-9.5 with reagent grade sodium hydroxide. All wetted parts were constructed from 316 stainless steel. Syringe infusion pumps were used for injection of scavenger and catalyst. A metering pump pressurized the flow to 85 psig. The first heating bath heated the water stream to about 214° F. in about 30 seconds. The water residence time in the second bath was 4.5 minutes, and the effluent temperature was 251° F. The water stream was cooled slightly below ambient temperature within a few seconds, the pressure was released, and the oxygen concentration of the effluent water was continuously monitored utilizing an Orbisphere oxygen probe at the exit sample point.
The data of Table 1 illustrate a remarkable reduction in dissolved O2 for the scavengers of this invention when utilized in conjunction with a catalyst in this temperature range.

[2] = Comparative stability study: hydrazine buildup in high amine formulations over days (p-dimethylaminobenzaldehyde method, ASTM D1385-78); type: physicochemical
[3] = Long term stability: hydrazine concentrations in high amine formulations over weeks (procedure of Example 5); type: physicochemical
Description: The procedure described in Example 5 was utilized to study long term stability. […] Thus, they are more advantageous than the conventional carbohydrazide treatment.

[4] = cited from earlier work
[5] = cited from earlier work; remark: listed apart in the source
[6] = catalyst none, None (untreated) 7800-8300
[7] = 6% scavenger in 40% cyclohexylamine
[8] = 6% scavenger / 40% CHA (cyclohexylamine)

Question: What does the source list for NNC(=O)Nc1ccccc1 [4-phenyl semicarbazide]?
Answer: Dissolved O2 ([1]; catalyst Co): 4180 ppb; Dissolved O2 ([1]; catalyst Cu): 164 ppb; Dissolved O2 [1, 6]: 7480 ppb

Question: What does the source list for NNC(=O)NN [CHz, carbohydrazide]?
Answer: Hydrazine (ppm) at 0 days [2, 7]: 433 ppm; Hydrazine (ppm) at 3 days [2, 7]: 1420 ppm; Hydrazine (ppm) at 6 days [2, 7]: 2100 ppm; Hydrazine (ppm) at 0 days ([2]; 6% scavenger in 40% morpholine): 94 ppm; Hydrazine (ppm) at 3 days ([2]; 6% scavenger in 40% morpholine): 280 ppm; Hydrazine (ppm) at 6 days ([2]; 6% scavenger in 40% morpholine): 465 ppm; Hydrazine (ppm) at 0 days ([2]; 6% scavenger, no amine): 54 ppm; Hydrazine (ppm) at 3 days ([2]; 6% scavenger, no amine): 56 ppm; Hydrazine (ppm) at 6 days ([2]; 6% scavenger, no amine): 59 ppm; Hydrazine (ppm) at 0 weeks [3, 8]: 433 ppm; Hydrazine (ppm) at 5 weeks [3, 8]: 6300 ppm; Hydrazine (ppm) at 0 weeks ([3]; 6% scavenger / 40% morpholine): 94 ppm; Hydrazine (ppm) at 5 weeks ([3]; 6% scavenger / 40% morpholine): 2016 ppm

Question: With NN [Hydrazine, hydrazine] as the compound, how does the “absorption” value ([4]; Kirk-Othmer) read?
Answer: Its value is “readily absorbed through the mouth, skin and respiratory system”.

Question: And the “toxicity” value ([4]; Kirk-Othmer)?
Answer: The value was “highly toxic”.

Question: And the “corneal damage” value ([4]; contact with the eye)?
Answer: Its value is “permanent corneal damage may result from contact with the eye”.

Question: And the “high dose effects” value ([4]; high doses)?
Answer: Its value is “high doses may cause convulsions and other damaging side effects”.

Question: And the “low dose effects” value ([4]; low doses)?
Answer: Its value is “Low doses may cause central nervous system depression”.

Question: And the “Dissolved O2” value ([1]; catalyst Cu)?
Answer: Its value is 241 ppb.

Question: And the “Dissolved O2” value [1, 6]?
Answer: The value was 7500 ppb.

Question: And the “elimination of residual oxygen” value ([5]; Kirk-Othmer)?
Answer: The value was “efficiently eliminates the residual oxygen”.

Question: And the “metal passivation” value ([5]; adherent protective layer of magnetite over iron surfaces)?
Answer: The value was “good metal passivator”.

Question: With CC(C)NC(=O)NN [4-isopropylsemicarbazide, N-isopropyl semicarbazide] as the compound, how does the “Dissolved O2” value ([1]; catalyst Co) read?
Answer: Its value is 6500 ppb.

Question: And the “Dissolved O2” value ([1]; catalyst Cu)?
Answer: The value was 98 ppb.

Question: And the “Dissolved O2” value [1, 6]?
Answer: Its value is 7500 ppb.

Question: What does the source list for CCN(CC)C(=O)NN [4,4-diethylsemicarbazide, N,N-diethylsemicarbazide]?
Answer: Dissolved O2 ([1]; catalyst Co): 6500 ppb; Dissolved O2 ([1]; catalyst Cu): 189 ppb; Dissolved O2 [1, 6]: 7300 ppb; Hydrazine (ppm) at 0 weeks [3, 8]: 114 ppm; Hydrazine (ppm) at 5 weeks [3, 8]: 149 ppm; Hydrazine (ppm) at 8 weeks ([3]; 6% scavenger / 40% CHA (cyclohexylamine), 8 weeks): 178 ppm
